Patent publication US20230001026A1, “PHAR[…] UNITS AND METHODS FOR CONCOMITANT ADMINISTRATION OF RADIOTRACERS” (LikeMinds, Inc., priority 2019, published 2023)
Values joined by “and” are separate entries in the source; they are usually repeats but may differ in a detail not shown here. Equal values may be shown once. Read-outs that look alike come from different tables or passages of the source.

Key:
[1] = target: T1, DAT in the striatum (Homo sapiens, UniProt Q01959); test: SPECT imaging of radiotracer binding to DAT after i.v. injection; assay type: in vivo; set-up: from tissue; host or cells: striatum of living patients (in vivo SPECT)
T1 sequence (Q01959 whole entry): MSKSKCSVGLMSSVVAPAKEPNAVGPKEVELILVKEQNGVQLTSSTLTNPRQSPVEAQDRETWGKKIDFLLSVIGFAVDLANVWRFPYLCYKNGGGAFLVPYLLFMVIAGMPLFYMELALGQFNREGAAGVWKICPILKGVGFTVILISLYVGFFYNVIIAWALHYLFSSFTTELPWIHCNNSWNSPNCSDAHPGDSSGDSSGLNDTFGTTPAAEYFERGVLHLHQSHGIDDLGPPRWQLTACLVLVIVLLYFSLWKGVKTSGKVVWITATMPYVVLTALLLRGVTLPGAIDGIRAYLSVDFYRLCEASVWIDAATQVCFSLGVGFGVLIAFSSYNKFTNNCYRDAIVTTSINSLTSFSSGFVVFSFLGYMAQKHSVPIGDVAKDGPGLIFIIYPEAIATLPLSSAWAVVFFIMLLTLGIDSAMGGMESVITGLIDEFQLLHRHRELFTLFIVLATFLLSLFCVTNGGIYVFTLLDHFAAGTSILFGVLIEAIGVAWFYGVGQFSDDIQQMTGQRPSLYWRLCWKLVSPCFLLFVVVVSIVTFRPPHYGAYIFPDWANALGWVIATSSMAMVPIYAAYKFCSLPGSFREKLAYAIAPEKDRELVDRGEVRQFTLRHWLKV
Description: More recently, the SN to striatum pathway of a live patient has become assessible by viewing images of the striatum obtained by various noninvasive imaging techniques. Such non-invasive methods use single photon emission computed tomography (SPECT) assessment measuring the uptake/binding of a radiolabeled imagining agent that binds to dopamine transporters (DAT) in the striatum. Currently, the only SPECT radiopharmaceutical approved for use in the United States, the European Union, and Canada is DaTSCAN® (N-ω-fluoropropyl-2β-carbomethoxy-3β-(4-iodophenyl) nortropane), which is radiolabeled with ^123I. After injection of DaTSCAN, the patient must wait 3 hr for its uptake into systemic circulation, and transition through the blood brain barrier into the parenchyma of the brain tissue until it reaches stable binding to DAT. At that point, radioactivity (counts) can be collected and quantified, and a visual image can be acquired via SPECT. The visual image is compiled for reading by experts who then determine if there is evidence of DAT density loss in the striatum. In the case of a patient with Parkinson's disease, an asymmetrical pattern of binding in the striatum is observed in the image, whereas in the non-parkinsonian tremor patient, the pattern is visible as bilateral and symmetrical (i.e., “normal) (Lewis et al. (2012) Practitioner 1748: 21-24). This information is used by treating physicians in determining diagnosis and subsequent treatment.
SPECT and PET are procedures in which the isotope bound to DaT2020 or derivatives thereof is measured once the agent has been administered and has reached stable binding in the ROI. Once entering the blood stream, it travels throughout the body (e.g., brain, liver, kidney, heart, lungs, and the peripheral vascular system) and binds to DAT in various regions of the body including the striatum. The time it takes to reach stable binding (to eliminate background noise to form a clearer image) depends on the ROI and the depth of the tissue penetrated by the agent.
In SPECT, the single emitted photon passes into the camera and strikes a scintillation crystal which, in turn, is viewed by a large number of photomultiplier tubes. The output voltages generated by the photomultiplier tubes are fed to a position circuit which produces four output signals. These signals contain information about the position and intensity of where the photon struck the crystal (scintillations). These signals (which “unblank” or “light up” the receiver, e.g., a cathode ray oscilloscope) for each photon are then fed into the memory circuitry of a computer and stored. […] Therefore, one can obtain counts and process them for quantitation at any single moment or over varying periods of time during a single scan session. In order to construct an image, a scan session must collect millions of counts over time in order to produce enough detail for a human reader to evaluate. […]
SPECT acquisition is performed on a SPECT/CT or stand-alone SPECT with at least two imaging heads fitted with collimators (parallel-beam and fan beam collimators with manufacturer specified (or measured according to NEMA standards) planar system resolution of <8 mm FWHM (in ‘air’ at 10 cm distance). Raw projection data (or counts) are acquired as described in Djang et al. (2013) Nuclear Med. Mol. Imaging 47(2):73-80), step-and-shoot mode with angle increments of 3° can be used. […]

[2] = sponsored clinical trials: safety and radiation dose of bolus injection; assay type: in vivo, human
Protocol: Such buffers include, but are not limited to, ethanol (solvent), sodium hydroxide and acetic acid (pH adjustment), sodium chloride injection (isotonic vehicle). The formulation to be administered as a bolus injection has been shown in sponsored clinical trials to be safe containing a dose of up to about 8 mCi to 10 mCi of radiolabeled DaT2020 and delivered in a total volume of about 2.5 mL to about 5 mL.
The radioactivity of the dose of radiolabeled DaT2020 or of its radiolabeled derivatives, can be determined by one with skill in the art, e.g. by a nuclear medicine imaging technician. In addition, the total radioactivity of the actual administered dose is of relevance and not the volume administered to achieve this dose. The exact radioactive dose of the tracer administered is determined by calculating the difference between the radioactivity in the syringe and delivery system before and after injection. After the dose is delivered, the syringe is filled with a volume of saline equal to the administered dose volume. The syringe content is recounted under the same conditions as used to determine the dose; separately. […]

[3] = target: DAT (Homo sapiens, UniProt Q01959); conditions: package insert; cited from earlier work
Sequence of DAT (Q01959 whole entry, species assumed): as the sequence (Q01959 whole entry) above

[4] = target: T1, DAT in the striatum; conditions: cited from earlier work; for time after injection until binding to striatal DAT becomes stable: post-injection, before SPECT imaging

SMILES	time after administration at which stable binding occurs ([1]; after administration, scanning can begin) [min]	time at which captured energy (counts) stabilizes ([1]; during scan after administration) [min]	SPECT image availability after i.v. injection time ([1]; post i.v. injection) [min]	time of wash-out from DAT receptors in dopaminergic neurons ([1]; post i.v. injection) [min]	scan time over which sufficient data for an image are collected ([1]; scan starting 15 min after administration) [min]	safety of bolus injection formulation ([2]; dose of up to about 8 mCi to 10 mCi, total volume about 2.5 mL to about 5 mL)	effective dose ([2]; for 5 mCi of radiolabeled DaT2020)	DAT sites bound for every one SERT site [3]	half-life ([4]; 123I-labeled tracer) [h]	earliest start of scanning procedure after administration ([4]; after administration)	duration for which binding remains stable ([4]; after stable binding is reached 3 hr post-injection) [h]	time of wash-out from DAT receptors in dopaminergic neurons ([4]; post i.v. injection, comparator, 'or more') [min]	SPECT image availability after i.v. injection time ([4]; post i.v. injection, comparator) [min]	time after injection until binding to striatal DAT becomes stable [4]	time after injection until binding to striatal DAT becomes stable ([4]; listed as [^123I]-FP-CIT) [h]	fraction of tracer available for DAT transporter binding in the brain tissue ([4]; rest bound to transporters other than DAT, package insert)
COC(=O)C1C(c2ccc(F)cc2)CC2CCC1N2C/C=C/[123I] (stereo not drawn) [DaT2020, [^123I]-E-2β-carbomethoxy-3β-(4-fluorophenyl)-N-(3-iodo-E-allyl) nortropane]	15	14 to 18	45 to 60	≤ 60	30	safe	approximately 4.3 mSv	–	–	–	–	–	–	–	–	–
COC(=O)[C@H]1[C@@H](c2ccc(I)cc2)C[C@@H]2CC[C@H]1N2CCCF [DaTSCAN, N-ω-fluoropropyl-2β-carbomethoxy-3β-(4-iodophenyl) nortropane]	–	–	–	–	–	–	–	two to three	13.2	at least 180 min	3	180 to 240	180 to 240	3 h and 3 to 6 h	3	about 7%
